Several values for one entry are separate records, joined by “and”; a condition that tells them apart may be missing. Equal values may be shown once.
Key:
human neuronal cells = test: Live/Dead assay on human neuronal cells; format: cell-based; conditions: human neurons, 3 day treatment
Method: Human neuronal cells were differentiated from human induced neural stem cells (hiNSCs) (passage 7-10), a generous gift from David Kaplan, as described previously. Briefly, hiNSCs were grown on mouse embryonic fibroblast (MEF) feeder cells until ready to differentiate into neurons. Cells were then seeded on Poly-D-Lysine (A3890401, ThermoFisher) and laminin (L2020, Sigma) coated 96 well plates at a density of 128,000 cells/mL. Cells were differentiated in Neurobasal (12348017, ThermoFisher) media supplemented with 2% B27 (17504044, Gibco), 1% Glutamax, and 1% antibiotic-antimycotic for 7 days with media changes every 2 days. At the end of the 7 days the treatments were added in the differentiation media for 3 days.
Dye Staining Protocols. For the Live/Dead assay, 1 μM Calcein Green AM and 0.5 μM ethidium homodimer-1 (L3224, ThermoFisher) were added to PBS along with 10 μg/mL of Hoechst to make the staining solution. Half the media was removed from the human neuronal cells that had been incubated with treatments for 3 days and replaced with staining solution. […] Cells were then incubated for 15 min at 37° C. and imaged. For resting membrane potential staining, DiBAC4(3) was used. U87 cells were seeded at 10,000 cells per mL on Matrigel coated plates as described above. […] Images were then analyzed using a CellProfiler pipeline. […]

[1] = Reported clinical pharmacokinetics and blood-brain barrier penetrance (literature); conditions: human, in vivo; pantoprazole 240 mg/day, if proportional to the 30 mg/day dose

- Cmax [1]: 42000 ng/mL and ~110 µM
SMILES: COc1ccnc(C[S+]([O-])c2nc3ccc(OC(F)F)cc3[nH]2)c1OC (centres unmarked) [Pantoprazole, pantoprazole]
- toxicity by Live/Dead stain compared to control (human neuronal cells): slight increase in toxicity that was significant compared to control

— US20250049747A1, “USE OF HYPERPOLARIZING AGENTS ALONE AND IN COMBINATION WITH OTHER THERAPEUTIC AGENTS FOR TREATING CANCERS INCLUDING GLIOBLASTOMA” (Trustees of Tufts College, priority 2021, published 2025)
